Test results: US20250215039A1, “NUCLEOSIDES FOR TREATING CANCER” (PRIMEFOUR THERAPEUTICS, INC., priority 2022, published 2025)
Read-outs that look alike come from different tables or passages of the source.

Tested on: cancer cell lines
Experiment: Cancer cell proliferation activity (CellTiterGlo, 72 h)
Type: cell-based
Conditions: 72 h, 72 h, read-out: IC50
Experimental: Dose response relationships on cell proliferation was assessed for representative Compounds of the Disclosure on cancer cell lines. Briefly, compound treatment of cells started one day after seeding with a final DMSO concentration of 0.1%, and was performed by nanodrop-dispensing using a Tecan Dispenser. 0.1% DMSO (solvent) and Staurosporine (10 μM) served as high control (100% viability) and low control (0% viability), respectively.
Cells were cultured in the appropriate media. For the assays, cells were seeded in white cell culture-treated flat and clear bottom multiwell plates and incubated at 37° C. overnight before compound was added. After incubation for 72 h at 37° C. at 5% or 10% CO2 dependent on the medium, cell plates were equilibrated to room temperature for one hour, CellTiterGlo reagent (Promega) was added and luminescence was measured approximately an hour later using a luminometer.
Raw data were converted into percent cell viability relative to the high and low control, which were set to 100% and 0%, respectively.
The IC50 values are summarized in Tables 9A-1, Table 10A, and Table 10B.

In the case of `C=C[C@]1(CO)O[C@@H](Nc2[nH]c(=O)ncc2Br)C[C@@H]1O` [Cpd. No. 3, 5-bromo-6-(((2R,4S,5R)-4-hydroxy-5-(hydroxymethyl)-5-vinyltetrahydrofuran-2-yl)amino)pyrimidin-2(1H)-one], the IC50 (5637 cell line (bladder)) is reported as 5.02 µM, the IC50 (CLS439 cell line (bladder)) is reported as greater than 50 µM and the IC50 (HS729 cell line (muscle)) is reported as 4.91 µM. It also gave an IC50 (JAR cell line (placenta)) greater than 50 µM, an IC50 (U20S cell line, bone) greater than 50 µM and an IC50 (Homo sapiens, 22Rv1, 72 h, 22RV1 cell line (prostate)) greater than 50 µM. For the same compound, the IC50 (Homo sapiens, 786-0, 72 h, 786O cell line (kidney)) was greater than 50 µM, the IC50 (Homo sapiens, A204, 72 h, A204 cell line (muscle)) was 1.1 µM and the IC50 (Homo sapiens, A549, 72 h, A549 cell line, lung) was 3.33 µM. The IC50 (Homo sapiens, A673, 72 h, A673 cell line (bone)) was greater than 50 µM, the IC50 (Homo sapiens, A2780, 72 h, A2780 cell line (ovary)) was greater than 50 µM and the IC50 (Homo sapiens, A-375, 72 h, A375 cell line (skin)) was 4.58 µM. The IC50 (Homo sapiens, A-431, 72 h, A431 cell line (skin)) was greater than 50 µM, the IC50 (Homo sapiens, ACHN, ACHN cell line (kidney)) was greater than 50 µM and the IC50 (Homo sapiens, ASPC1, 72 h, ASPC1 cell line (pancreas)) was greater than 50 µM. It also gave an IC50 (Homo sapiens, BT-20, 72 h, BT20 cell line (breast)) greater than 50 µM, an IC50 (Homo sapiens, BXPC-3, 72 h, BXPC3 cell line (pancreas)) greater than 50 µM and an IC50 (Homo sapiens, C-33-A, C33A cell line, endometrial) of 2.67 µM. The IC50 (Homo sapiens, CAKI-1, 72 h, CAKI1 cell line (kidney)) was 3.25 µM, the IC50 (Homo sapiens, COLO 205, 72 h, COLO205 cell line (colon)) was 2.31 µM and the IC50 (Homo sapiens, COLO-678, 72 h, COLO678 cell line (colon)) was greater than 50 µM. It also gave an IC50 (Homo sapiens, Ca-Ski, CASKI cell line, endometrial) greater than 50 µM, an IC50 (Homo sapiens, Caco-2, 72 h, CACO2 cell line (colon)) greater than 50 µM and an IC50 (Homo sapiens, Calu-6, 72 h, CALU6 cell line (lung)) of 6.06 µM. For the same compound, the IC50 (Homo sapiens, DLD-1, 72 h, DLD1 cell line (colon)) was greater than 50 µM, the IC50 (Homo sapiens, DU-145, 72 h, DU145 cell line (prostate)) was greater than 50 µM and the IC50 (Homo sapiens, EFO-21, 72 h, EFO21 cell line (ovary)) was greater than 50 µM. The IC50 (Homo sapiens, EJ-28, 72 h, EJ28 cell line (bladder)) was greater than 50 µM, the IC50 (Homo sapiens, Granta-519, 72 h, GRANTA-519 cell line (hematological)) was 1.06 µM and the IC50 (Homo sapiens, HCT-15, 72 h, HCT15 cell line (colon)) was greater than 50 µM. The IC50 (Homo sapiens, HCT-116, 72 h, HCT116 cell line (colon)) was 3.65 µM, the IC50 (Homo sapiens, HEK293, 72 h, HEK293 cell line (kidney)) was 3.46 µM and the IC50 (Homo sapiens, HL-60, 72 h, HL-60 cell line (hematological)) was 3.42 µM. The IC50 (Homo sapiens, HT-29, 72 h, HT29 cell line (colon)) was greater than 50 µM, the IC50 (Homo sapiens, HT-1080, 72 h, HT1080 cell line (connective tissue)) was 3.43 µM and the IC50 (Homo sapiens, HeLa, HELA cell line, endometrial) was 5.34 µM. The IC50 (Homo sapiens, HepG2, 72 h, HEPG2 cell line (liver)) was greater than 50 µM, the IC50 (Homo sapiens, Hs-578T, HS578T cell line, breast) was greater than 50 µM and the IC50 (Homo sapiens, IGROV-1, 72 h, IGROV1 cell line (ovary)) was greater than 50 µM. For the same compound, the IC50 (Homo sapiens, IMR-90, 72 h, IMR90 cell line, lung) was 5.39 µM, the IC50 (Homo sapiens, J82, 72 h, J82 cell line (bladder)) was greater than 50 µM and the IC50 (Homo sapiens, JEG-3, 72 h, JEG3 cell line (placenta)) was greater than 50 µM. The IC50 (Homo sapiens, JIMT-1, 72 h, JIMT1 cell line (breast)) was 11.8 µM, the IC50 (Homo sapiens, K562, 72 h, K-562 cell line (hematological)) was 5.04 µM and the IC50 (Homo sapiens, Kasumi 1, 72 h, KASUMI-1 cell line (hematological)) was 0.5 µM. For the same compound, the IC50 (Homo sapiens, L-363, 72 h, L-363 cell line (hematological)) was greater than 50 µM, the IC50 (Homo sapiens, LoVo, LOVO cell line (colon)) was greater than 50 µM and the IC50 (Homo sapiens, MCF7, 72 h, MCF7 cell line (breast)) was 2.6 µM. For the same compound, the IC50 (Homo sapiens, MDA-MB-231, 72 h, MDAMB231 cell line (breast)) was 2.96 µM, the IC50 (Homo sapiens, MDA-MB-435, 72 h, MDAMB435 cell line (skin)) was greater than 50 µM and the IC50 (Homo sapiens, MDA-MB-436, 72 h, MDAMB436 cell line (breast)) was 3.65 µM. It also gave an IC50 (Homo sapiens, MDA-MB-468, 72 h, MDAMB468 cell line (breast)) greater than 50 µM, an IC50 (Homo sapiens, MG-63, 72 h, MG63 cell line (bone)) of 3.93 µM and an IC50 (Homo sapiens, MHH-ES-1, 72 h, MHHES1 cell line (bone)) of 4.87 µM. It also gave an IC50 (Homo sapiens, MIA PaCa-2, 72 h, MIAPACA2 cell line (pancreas)) greater than 50 µM, an IC50 (Homo sapiens, MINO, MINO cell line (hematological)) of 1.51 µM and an IC50 (Homo sapiens, MV4-11, 72 h, MV4-11 cell line (hematological)) of 2.14 µM. The IC50 (Homo sapiens, NCI-H23, 72 h, NCI-H23 cell line (lung)) was 1.81 µM, the IC50 (Homo sapiens, NCI-H82, 72 h, NCIH82 cell line (lung)) was greater than 50 µM and the IC50 (Homo sapiens, NCI-H292, 72 h, NCIH292 cell line (lung)) was 5.41 µM. For the same compound, the IC50 (Homo sapiens, NCI-H460, 72 h, NCIH460 cell line (lung)) was greater than 50 µM, the IC50 (Homo sapiens, OVCAR-3, 72 h, OVCAR3 cell line (ovary)) was 3.08 µM and the IC50 (Homo sapiens, OVCAR-4, 72 h, OVCAR4 cell line (ovary)) was 3.18 µM. It also gave an IC50 (Homo sapiens, PANC-1, 72 h, PANC1 cell line (pancreas)) greater than 50 µM, an IC50 (Homo sapiens, PC-3, 72 h, PC3 cell line (prostate)) of 4.81 µM and an IC50 (Homo sapiens, PLC-PRF-5, 72 h, PLCPRF5 cell line (liver)) greater than 50 µM. It also gave an IC50 (Homo sapiens, Panc1005, 72 h, PANC1005 cell line (pancreas)) greater than 50 µM, an IC50 (Homo sapiens, RD, RD cell line (muscle)) of 2.67 µM and an IC50 (Homo sapiens, Ramos, RAMOS cell line (hematological)) of 1.41 µM. It also gave an IC50 (Homo sapiens, SAOS-2, 72 h, SAOS2 cell line (bone)) of 1.7 µM, an IC50 (Homo sapiens, SF-268, 72 h, SF268 cell line (brain)) greater than 50 µM and an IC50 (Homo sapiens, SF-295, 72 h, SF295 cell line (brain)) greater than 50 µM. For the same compound, the IC50 (Homo sapiens, SK-BR-3, 72 h, SKBR3 cell line (breast)) was 3.45 µM, the IC50 (Homo sapiens, SK-HEP1, 72 h, SKHEP1 cell line (liver)) was 3.02 µM and the IC50 (Homo sapiens, SK-LMS-1, 72 h, SKLMS1 cell line (uterus)) was greater than 50 µM. The IC50 (Homo sapiens, SK-MEL-5, 72 h, SKMEL5 cell line, skin) was greater than 50 µM, the IC50 (Homo sapiens, SK-MEL-28, 72 h, SKMEL28 cell line (skin)) was 4.19 µM and the IC50 (Homo sapiens, SK-N-AS, SKNAS cell line (brain)) was 0.96 µM. The IC50 (Homo sapiens, SK-N-SH, SKNSH cell line (brain)) was 0.91 µM, the IC50 (Homo sapiens, SK-OV-3, 72 h, SKOV3 cell line (ovary)) was 2.45 µM and the IC50 (Homo sapiens, SNB-75, 72 h, SNB75 cell line (brain)) was greater than 50 µM. For the same compound, the IC50 (Homo sapiens, SU-DHL10, 72 h, SU-DHL-10 cell line (hematological)) was 5.56 µM, the IC50 (Homo sapiens, SU-DHL-6, 72 h, SU-DHL-6 cell line (hematological)) was greater than 50 µM and the IC50 (Homo sapiens, SW-620, 72 h, SW620 cell line (colon)) was greater than 50 µM. For the same compound, the IC50 (Homo sapiens, T-24, 72 h, T24 cell line (bladder)) was greater than 50 µM, the IC50 (Homo sapiens, TE-671, 72 h, TE671 cell line (muscle)) was 3.08 µM and the IC50 (Homo sapiens, THP-1, 72 h, THP-1 cell line (hematological)) was 3.01 µM. The IC50 (Homo sapiens, U-87 MG, U87MG cell line (brain)) was greater than 50 µM, the IC50 (Homo sapiens, UMUC3, 72 h, UMUC3 cell line (bladder)) was greater than 50 µM and the IC50 (Homo sapiens, UO-31, 72 h, UO31 cell line (kidney)) was greater than 50 µM. It also gave an IC50 (Homo sapiens, WSU-NHL, WSU-NHL cell line (hematological)) of 2.34 µM, an IC50 (MT-3, 72 h, MT3 cell line (breast)) of 3.68 µM and an IC50 (NCI-H358M, NCIH358M cell line (lung)) of 2.69 µM. It also gave an IC50 (PBMC, PBMC (hematological)) greater than 50 µM and an IC50 (RD-ES, RDES cell line (bone)) greater than 50 µM.
